Patent US6555370B1, “Bifunctional selectable fusion genes” (Immunex Corporation, priority 1990, dated 2003)
Entries after “also recorded” stand apart in the source; their conditions may differ.

Columns and labels:
NIH/3T3 cells [1] = experiment: Long-term cell proliferation assay for GCV sensitivity (colony formation); format: cell-based
Description: Uninfected NIH/3T3 cells and the infected NIH/3T3 cell pools were plated at relatively low cell density (10^4 cells/[…]) in complete growth medium and allowed to attach for 4 hours. The medium was then supplemented with hygromycin B (500 μg/ml), with or without 1 μM GCV, and the cells incubated for a period of 10 days. The medium was then removed and the cells were fixed in situ with 100% methanol and stained with methylene blue. […] Colonies of cells resistant to both Hm and GCV were obtained at a low frequency (10^−4-10^−3) from the retrovirus-infected populations (FIG. 6, plates e and g). The proviruses present in the cells that gave rise to these colonies had likely suffered point mutations, or very small deletions or rearrangements in the HSV-I TK moiety which eliminated the ability to phosphorylate GCV. Similar results were also obtained with Rat-2 cell lines infected with tgLS(+)HyTK or with tgLS(−)CMV/HyTK (data not shown).

NIH/3T3 cells [2] = experiment: Long-term proliferation assay for 5-FC sensitivity; format: cell-based; details: 10-14 days
Description: C. Negative Selection of Cells Containing the CD-neo (SEQ ID NO:3 Selectable Fusion Gene. To investigate the utility of the neo and CD-neo (SEQ ID NO:3 selectable fusion genes for negative selection, the colonies resulting from each transfection were pooled and expanded into cell lines for further analysis. The NIH/3T3 cells, or NIH/3T3 cells infected with the tgLS(+)neo or tgLS(+)CD-neo retroviruses were assayed for 5-FC^s using a long-term proliferation assay.
First, 1×10^4 cells were seeded into 10 cm tissue culture dishes in complete growth medium and allowed to attach for 4 hours. The medium was then supplemented with various concentrations of G-418 and/or 5-FC (Sigma), after which the cells were incubated for a further 10-14 days. The medium was replaced every 2-4 days. The cells were then fixed in situ with 100% methanol and stained with methylene blue.

transfected Rat-2 cells = experiment: Short term cell proliferation assay for GCV sensitivity; format: cell-based
Description: (§1) C. Negative Selection of Cells Containing the HyTK (SEQ ID NO:1 Selectable Fusion Gene. To investigate the utility of the HyTK (SEQ ID NO:1 selectable fusion gene for negative selection, the colonies resulting from each transfection (Table 1) were pooled and expanded into cell lines for further analysis. The Hm^r NIH/3T3 cell pools and the Hm^r and HAT^r Rat-2 cell pools were tested for GCV^s in a short term cell proliferation assay as follows.
(§2) The transfected NIH/3T3 and Rat-2 cells (3×10^4 of each) were seeded into 9-cm tissue culture dishes in complete growth medium, and allowed to attach for 4 hours. The medium was then supplemented with various concentrations of GCV (Syntex, Palo Alto, Calif.), and the cells incubated for an additional 60 hours. At this time, the medium was removed, the attached cells were harvested by trypsinization and stained with trypan blue, and the viable cells were counted. Cell growth was expressed as a fraction of the cell growth observed in the absence of GCV. The results shown are the average of triplicate assays.

[3] = tested on: transfected NIH/3T3 cells; experiment: as above; format: cell-based
Description: as §1, §2

[4] = tested on: cells expressing the HSV-I TK gene; details: cited from earlier work
murine sarcoma (K3T3) = details: syngeneic mice; Moolten and Wells 1990; cited from earlier work
[5] = NIH/3T3 cells infected with tgLS(+)CD-neo, 800 μg/ml G-418, 100 μg/ml 5-FC
[6] = NIH/3T3 cells infected with tgLS(+)neo, 800 μg/ml G-418, 100 μg/ml 5-FC
[7] = uninfected NIH/3T3 cells, 800 μg/ml G-418 or 100 μg/ml 5-FC

## CN[C@H]1C[C@@H](N)[C@H](O)[C@@H](O[C@@H]2O[C@H](CO)[C@H](O)[C@@H]3OC4(O[C@H]23)O[C@H]([C@@H](N)CO)[C@H](O)[C@H](O)[C@H]4O)[C@@H]1O (stereo partly drawn) [Hm, hygromycin B]
NIH/3T3 cells [1]; uninfected NIH/3T3, 500 μg/ml Hm, 10 days
  Growth of uninfected cells in Hm: completely killed

## Nc1nc(=O)[nH]cc1F [5-FC, 5-fluorocytosine]
NIH/3T3 cells [2]; [5]
  Sensitivity or resistance of cells to the drug: sensitive
NIH/3T3 cells [2]; [6]
  Sensitivity or resistance of cells to the drug: resistant
NIH/3T3 cells [2]; [7]
  Sensitivity or resistance of cells to the drug: resistant

## CN[C@@H]1[C@@H](O)[C@@H](O[C@@H]2[C@@H](O)[C@H](O[C@H]3O[C@H]([C@@H](C)O)[C@@H](O)[C@H](O)[C@H]3N)[C@@H](N)C[C@H]2N)OC[C@]1(C)O [G-418]
NIH/3T3 cells [2]; [5]
  Sensitivity or resistance of cells to the drug: resistant
NIH/3T3 cells [2]; [6]
  Sensitivity or resistance of cells to the drug: resistant
NIH/3T3 cells [2]; [7]
  Sensitivity or resistance of cells to the drug: sensitive

## Nc1nc(O)c2ncn(COC(CO)CO)c2n1 [GCV, ganciclovir]
NIH/3T3 cells [1]; NIH/3T3 cell pools infected with tgLS(+)HyTK or tgLS(−)CMV/HyTK, 500 μg/ml hygromycin B plus 1 μM GCV, 10 days
  Growth as measured by colony formation: almost completely inhibited
NIH/3T3 cells [1]; cells infected with HyTK retroviral vectors
  Infected cells killed by GCV: > 99.9%
NIH/3T3 cells [1]; retrovirus-infected NIH/3T3 populations, 500 μg/ml Hm plus 1 μM GCV
  Frequency of colonies resistant to both Hm and GCV: 10^−4-10^−3
NIH/3T3 cells [1]; uninfected NIH/3T3, 1 μM GCV, 10 days
  Growth of uninfected cells in GCV: resistant
Transfected Rat-2 cells; Rat-2, both Hm^r and HAT^r selected pools
  Sensitivity to GCV of Rat-2 cell pools transfected with tgCMV/HyTK relative to Rat-2 cells transfected with tgCMV/TK: over 30 fold
Transfected Rat-2 cells; Rat-2 cells transfected with tgCMV/HyTK (selected for Hm^r or HAT^r), lowest concentration 0.03 μM GCV
  Effect of GCV on cell growth: inhibits growth; also recorded: almost completely inhibited
Transfected Rat-2 cells; Rat-2 cells transfected with tgCMV/TK, higher concentrations required than for tgCMV/HyTK cells
  Effect of GCV on cell growth: inhibits growth; also recorded: inhibited
Transfected Rat-2 cells; Rat-2 cells transfected with tgCMV/hygro, 0.03 μM-1.0 μM GCV
  Effect of GCV on cell growth: did not inhibit growth; also recorded: not inhibited
[3]; Mus musculus, NIH3T3, NIH/3T3 cells transfected with tgCMV/HyTK, 1 μM GCV, 60 hours, read-out: Degree of inhibition of cell growth
  inhibition at 1 µM: ~100%
[3]; NIH/3T3 cells transfected with tgCMV/HyTK
  Effect of GCV on cell growth: inhibits growth
[3]; NIH/3T3 cells transfected with tgCMV/hygro, 0.03 μM-1.0 μM GCV
  Effect of GCV on cell growth: does not inhibit growth; also recorded: not adversely affected
[4]; same transgenic mice, Moolten et al. 1990
  Regression of Abelson leukemia virus-induced lymphomas: full regression
[4]; transgenic animals, Heyman et al. 1989
  Ablation of cells expressing the HSV-I TK gene: selective ablation
Murine sarcoma (K3T3)
  Eradication of tumors induced by the sarcoma cells: completely eradicated
